Measurements as given in the supplement of paper PMC10307832.

Key:
Experiment in all cases: relative viability (nuclei count vs DMSO), 5 days (fraction); higher = more cells survive
EHT 1864 + Navitoclax = compound: C1COCCN1CC2=CC(=O)C(=CO2)OCCCCCSC3=C4C=CC(=CC4=NC=C3)C(F)(F)F [EHT 1864] + CC1(C)CCC(c2ccc(Cl)cc2)=C(CN2CCN(c3ccc(C(=O)NS(=O)(=O)c4ccc(N[C@H](CCN5CCOCC5)CSc5ccccc5)c(S(=O)(=O)C(F)(F)F)c4)cc3)CC2)C1 [Navitoclax] (partner 0.5 µM)
In short: (§1)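 Lung cancer cell lines in 1536-well plates were dosed by pin tool the day after seeding, either with one drug alone or with a fixed anchor-drug dose plus five library-drug doses (not always all listed) in √10 steps. After 5 days, cells were fixed and their nuclei stained in one step (final 0.05% Triton X-100, 1% formaldehyde, 1 ug/ml Hoechst), then counted on 4× images. Relative viability is the nuclei count in treated wells divided by that in vehicle wells. Values are medians of duplicate plates.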

EHT 1864 + Linsitinib = compound: C1COCCN1CC2=CC(=O)C(=CO2)OCCCCCSC3=C4C=CC(=CC4=NC=C3)C(F)(F)F [EHT 1864] + C[C@]1(O)C[C@@H](c2nc(-c3ccc4ccc(-c5ccccc5)nc4c3)c3c(N)nccn32)C1 [Linsitinib] (partner 1 µM)
In short: as §1

EHT 1864 + Vorinostat = compound: C1COCCN1CC2=CC(=O)C(=CO2)OCCCCCSC3=C4C=CC(=CC4=NC=C3)C(F)(F)F [EHT 1864] + O=C(CCCCCCC(=O)Nc1ccccc1)NO [Vorinostat] (partner 1 µM)
In short: as §1

EHT 1864 + Alpelisib = compound: C1COCCN1CC2=CC(=O)C(=CO2)OCCCCCSC3=C4C=CC(=CC4=NC=C3)C(F)(F)F [EHT 1864] + Cc1nc(NC(=O)N2CCC[C@H]2C(N)=O)sc1-c1ccnc(C(C)(C)C(F)(F)F)c1 [Alpelisib] (partner 2 µM)
In short: as §1

Cell Line	relative viability (EHT 1864 + Navitoclax; first compound 0.04 µM)	relative viability (EHT 1864 + Navitoclax; first compound 0.4 µM)	relative viability (EHT 1864 + Navitoclax; first compound 1.265 µM)	relative viability (EHT 1864 + Navitoclax; first compound 4 µM)	relative viability (EHT 1864 + Linsitinib; first compound 0.04 µM)	relative viability (EHT 1864 + Linsitinib; first compound 0.4 µM)	relative viability (EHT 1864 + Linsitinib; first compound 1.265 µM)	relative viability (EHT 1864 + Linsitinib; first compound 4 µM)	relative viability (EHT 1864 + Vorinostat; first compound 0.04 µM)	relative viability (EHT 1864 + Vorinostat; first compound 0.1265 µM)	relative viability (EHT 1864 + Vorinostat; first compound 0.4 µM)	relative viability (EHT 1864 + Vorinostat; first compound 1.265 µM)	relative viability (EHT 1864 + Vorinostat; first compound 4 µM)	relative viability (EHT 1864 + Alpelisib; first compound 0.04 µM)	relative viability (EHT 1864 + Alpelisib; first compound 0.4 µM)	relative viability (EHT 1864 + Alpelisib; first compound 1.265 µM)	relative viability (EHT 1864 + Alpelisib; first compound 4 µM)	relative viability (EHT 1864 + Navitoclax; first compound 0.1265 µM)	relative viability (EHT 1864 + Linsitinib; first compound 0.1265 µM)	relative viability (EHT 1864 + Alpelisib; first compound 0.1265 µM)
LCLC-97TM1	0.414	0.342	0.339	0.503	0.202	0.148	0.168	0.233	0.848	0.509	0.813	0.613	0.74	0.253	0.22	0.195	0.198			
HARA	1.11	1.1	1.19	0.996	0.963	1.08	0.983	1.01	0.514	0.366	0.715	0.582	0.229	0.762	0.843	0.814	0.857	1.15	0.928	0.758
HCC-78	0.618	0.693	0.685	1.1	0.555	0.394	0.486	0.809	0.377	0.429	0.421	0.429	0.467	0.29	0.328	0.367	0.491	0.746	0.452	0.31
NCI-H1666	0.881	0.957	0.965	0.92	0.828	0.837	0.73	0.912	1.02	0.987	0.899	0.986	1.05	0.898	0.978	0.98	0.966	0.834	0.74	1.12
NCI-H2347	0.77	0.812	0.714	0.828	0.92	0.95	0.941	0.999	0.544	0.396	0.506	0.65	0.739	1.02	0.989	1.03	1.2	0.708	0.741	0.868
NCI-H838	1.08	1.14	1.08	1.14	0.977	1.08	1.05	1.01	0.713	0.668	0.74	0.723	0.727	0.969	0.988	0.921	0.827	1.04	0.889	0.881
NCI-H2023	0.964	0.874	0.939	0.841	0.586	0.612	0.656	0.602	0.692	0.381	0.591	0.699	0.784	0.513	0.564	0.694	0.546	0.978	0.717	0.597
201T	1.27	1.22	1.15	1.16	1.08	1.08	0.925	1.03	0.901	0.876	1.01	0.923	0.811	1.02	0.977	0.982	1.01	1.2	1.05	1.08
NCI-H1915	0.797	0.764	0.768	0.792	1.13	1.04	1.1	1.08	0.501		0.517	0.478	0.564	1.12	0.988	1.05	1.05			
NCI-H2009	1.16	1.14	1.11	0.879	1.15	1.17	1.24	0.897	0.69	0.698	0.72	0.627	0.612	1.16	1.11	1.12	0.971	1.15	1.2	1.13
BEN	0.0831	0.0547	0.075	0.238	0.862	0.879	0.851	0.985	0.528	0.579	0.636	0.648	0.57	0.941	0.92	0.938	1.1	0.0599	0.801	0.825
PC-14	1.06	0.952	1.02	1.06	0.955	0.954	0.985	0.99	0.791	0.572	0.686	0.743	0.751	0.916	0.952	0.901	0.846	0.957	0.973	0.888
NCI-H1793		0.485	0.364	0.387		0.888	0.696	0.984	0.656	0.403	0.768	0.879	0.935		0.815	0.847	0.7	0.366	0.775	0.635
